Molecules are shown by their SMILES.

The experiment deals with mTOR kinase (Homo sapiens, UniProt P42345). Kind of experiment: cell-free ELISA kinase assay. The experiment is classed as biochemical. A general note: In an ELISA, binding on a coated surface is turned into a signal by an enzyme label.

For `O=C1NC(c2cccc3ncccc23)Nc2ccccc21` (stereo not shown) [DQQ, 2,3-dihydro-2-(quinoline-5-yl) quinazolin-4(1H)-one], inhibition was half-maximal at 6 nM (IC50). In other words, the single-digit nanomolar range.

One may read the IC50 as the midpoint of a concentration-inhibition curve. Lower therefore signals inhibition by little substance.

Source of the values: article PMC5598135 (Toxicology Reports, 2014).
